Earlier results, collected in patent US6894093B2, “Materials free of endorine disruptive chemicals” (priority 2001, dated 2005).
Like-named read-outs stand apart in the source and are kept apart here. One block for each molecule: values may come before it.

How the values were obtained:
[1] = design: key: Estrogenic (EA); Carcinogenic (CA) Activity; conditions: plastic monomers

endocrine disruptive activity (estrogen receptor (ER); statement in background text): exhibit endocrine disruptive activity | estrogenic activity (estrogen receptor (ER); statement in background text): deleterious estrogenic activity
Molecule: CC(C)(c1ccc(O)cc1)c1ccc(O)cc1 [Bisphenol A]
Monomer Exhibits Estrogenic (EA) or Carcinogenic (CA) Activity [1]: EA

Molecule: COc1ccc(O)c(C(C)(C)C)c1 [Butylated hydroxyanisole (BHA), Butylated hydroxyanisole]
ADI: 0 to 0.5 mg/kg

Molecule: CCCCC(CC)COC(=O)c1ccccc1C(=O)OCC(CC)CCCC (stereo not shown) [DEHP, di(2-ethylhexyl) phthalate]
estrogenic activity (estrogen receptor (ER); statement in background text): estrogen-mimicking

ADI: 0 to 2.5 mg/kg
Molecule: CCCOC(=O)c1cc(O)c(O)c(O)c1 [Propyl gallate]

ADI: 0 to 0.2 mg/kg
Molecule: CC(C)(C)c1cc(O)ccc1O [Tert-Butylhydroquinone (TBHQ), Tert-Butylhydroquinone]

Molecule: C=CCl [Vinylchloride]
Monomer Exhibits Estrogenic (EA) or Carcinogenic (CA) Activity [1]: CA

Molecule: (di)Butyl hydroxy toluene [(di)Butyl hydroxy toluene (BHT)]
Predicted Estrogenic Activity (estrogen receptor (ER)): Yes | endocrine disruptive activity (estrogen receptor (ER)): exhibits endocrine disruptive activity
